In one assay the target is T1, Topoisomerase I (Homo sapiens, UniProt P11387).
T1 construct: purchased Topogen, Inc., Port Orange, Fla
T1 sequence (P11387 1-765): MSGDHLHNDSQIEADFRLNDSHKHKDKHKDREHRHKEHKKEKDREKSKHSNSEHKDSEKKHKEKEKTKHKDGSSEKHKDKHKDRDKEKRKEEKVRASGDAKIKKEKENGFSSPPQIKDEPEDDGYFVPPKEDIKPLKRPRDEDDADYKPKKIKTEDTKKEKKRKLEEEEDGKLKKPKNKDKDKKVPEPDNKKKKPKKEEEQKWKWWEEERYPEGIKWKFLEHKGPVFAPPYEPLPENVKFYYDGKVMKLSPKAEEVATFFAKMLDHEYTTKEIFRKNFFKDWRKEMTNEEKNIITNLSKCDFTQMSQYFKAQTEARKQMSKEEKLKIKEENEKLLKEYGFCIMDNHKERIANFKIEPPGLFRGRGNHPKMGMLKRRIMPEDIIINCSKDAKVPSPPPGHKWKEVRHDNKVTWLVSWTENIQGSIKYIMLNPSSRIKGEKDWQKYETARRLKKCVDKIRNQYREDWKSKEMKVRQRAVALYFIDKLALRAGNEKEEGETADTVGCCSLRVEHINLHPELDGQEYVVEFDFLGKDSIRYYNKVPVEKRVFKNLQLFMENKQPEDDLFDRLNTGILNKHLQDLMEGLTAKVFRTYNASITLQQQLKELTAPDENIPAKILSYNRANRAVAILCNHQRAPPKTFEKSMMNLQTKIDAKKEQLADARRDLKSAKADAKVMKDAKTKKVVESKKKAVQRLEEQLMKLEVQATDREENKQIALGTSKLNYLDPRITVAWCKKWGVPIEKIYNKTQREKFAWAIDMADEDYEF
The assay can be described thus: Topoisomerase assay (TopoGEN Topo I Drug Screening Kit). The assay is classed as biochemical. The text has this:
Topoisomerase I introduces transient nicks in DNA at specific sites. Detection of these transient DNA nicks requires trapping the enzyme on DNA in a nicked intermediate complex using protein denaturants. The resulting covalent DNA/top I complexes contain nicked open circular DNA which can be detected by agarose gel electrophoresis (with ethidium bromide). Trapping nicked intermediates is relatively inefficient, however, inhibitors, such as the natural product camptothecin, stabilize the intermediate and lead to an increase in the nicked DNA product. This forms the basis for a mechanistic drug screen designed to allow detection of agents that affect topoisomerase I by stabilizing the cleaved intermediate complex.
The TopoGEN Topo I Drug Screening Kit (Topogen, Inc., Port Orange, Fla.) is designed to allow the investigator to quickly identify novel inhibitors of topoisomerase I. The kit allows the detection of novel compounds that either stabilize the nicked intermediate or otherwise inhibit catalytic activity of topoisomerase I.
The above reaction mixture is incubated at 37 degree C. for 30 minutes. The reaction is terminated by adding 2 μl of 10% SDS and the mixture is vortexed rapidly (SDS should be added while at 37 degree C. as cooling the tubes might reseal the nicked DNA). 10× Dye, about 2.5 μl per tube, is added and equal volumes of a mixture of chloroform and isoamyl alcohol (24:1) is added and centrifuged at 13000 rpm for 10 minutes. Samples are loaded on a 1% agarose gel and electrophoresed for 1 hour at 80 volts. The gel was viewed on UV transilluminator and the densitometric estimation of the bands was calculated.
The density of the DNA bands of both super coiled and relaxed forms of DNA was measured using the densitometer. The band intensity of treated (with single concentration of the test drug) and without the drug (i.e., the Control) were recorded. The percentage of relaxed form DNA compared to the supercoiled DNA was calculated for all the lanes including treated and control. • % inhibition of Topoisomerase activity was calculated as: […]

The subject of assay [1] is Osteosarcoma-29 xenograft. The assay can be described thus: Osteosarcoma tumor regression model. More on the design: key: 6+: Maintained Complete Regression; 5+: Complete Regression; 4+: Partial Regression; 3+: Stable Disease. As to conditions: 28 mg/kg oral gavage, [(d×5)2]3 schedule. It is filed as in vivo, mice. On the procedure:
(§1) This test was carried out with the use of the methods described in Cancer, Res., Oct. 15, 64:20:7491-9 (2004), and in Clin. Cancer Res., Nov. 15:9 (15):5442-53 (2003).
(§2) All mice bearing subcutaneous (“Sc”) tumors measuring approximately 0.2-1 cm in diameter were treated with a test compound by oral gavage using [(d×5)2]3 schedule. […] The tumor response to the test compound was defined as follows: For individual tumors, partial regression (“PR”) was defined as a volume regression >50%, but with measurable tumor at all times. Complete regression (“CR”) was defined as disappearance of measurable tumor mass at some point within 12 weeks after initiation of therapy. Maintained CR is defined as no tumor re-growth within a 12-week study time frame. This time point was chosen because all studies lasted at least 12 weeks. Mice that died before the end of the 12-week study time, and prior to achieving a response, were considered as failures for tumor response.

In assay [2] the test system is Osteosarcoma-17 xenograft. The assay can be described thus: Osteosarcoma tumor regression model. More on the design: key: 6+: Maintained Complete Regression; 5+: Complete Regression; 4+: Partial Regression; 3+: Stable Disease. As to conditions: 28 mg/kg oral gavage, [(d×5)2]3 schedule. The assay is classed as in vivo, mice. As for the experimental part: as §1, §2
Assay [3] has as its system Osteosarcoma-32 xenograft. Description: Osteosarcoma tumor regression model. It is filed as in vivo, mice. More on the design: key: 6+: Maintained Complete Regression; 5+: Complete Regression; 4+: Partial Regression; 3+: Stable Disease. Particulars: 28 mg/kg oral gavage, [(d×5)2]3 schedule. On the procedure: as §1, §2
The next assay concerns Osteosarcoma-2 xenograft. Description: Osteosarcoma tumor regression model. Particulars: 28 mg/kg oral gavage, [(d×5)2]3 schedule. It is filed as in vivo, mice. Also on record: key: 6+: Maintained Complete Regression; 5+: Complete Regression; 4+: Partial Regression; 3+: Stable Disease. As for the experimental part: as §1, §2

One may read the IC50 as the concentration that inhibits the measured activity by half. On Topoisomerase I, `CC[C@@]1(O)C(=O)OCc2c1cc1n(c2=O)C(OCCO)c2cc3ccccc3nc2-1` (mixture of isomers) [5(RS)-(2′-hydroxyethoxy)-20(S)-camptothecin, reference compound] had an IC50 of 12.5 µM. The Tumor response in assay [1] was 5+; in assay [2], 4+; in assay [3], 3+; with Osteosarcoma-2 xenograft, 5+.

For `CC[C@@]1(O)C(=O)OCc2c1cc1n(c2=O)[C@@H](OCCO)c2cc3ccccc3nc2-1` [DRF-(5S,20S)-1042, 5(S)-(2′-hydroxyethoxy)-20(S)-camptothecin], the “fold more active than 5(R)-(2′-hydroxyethoxy)-20(S)-camptothecin in inhibiting topoisomerase I” value on Topoisomerase I was “about 21 fold”. For the same molecule, the “times more active than 5(RS)-(2′-hydroxyethoxy)-20(S)-camptothecin in inhibiting topoisomerase I” value at Topoisomerase I is “about 12 times”. Also, the Tumor response (in assay [1]; in assay [2]; in assay [3]; with Osteosarcoma-2 xenograft) was 6+ in each case.

These data come from patent publication US20110177161A1, “PHARMACEUTICAL COMPOSITIONS OF [5(S)-(2'-HYDROXYETHOXY)-20(S)-CAMPTOTHECIN” (DR. REDDY'S LABORATORIES LIMITED, priority 2007, published 2011).
